Source: PubChem BioAssay (NCI)
Values joined by “and” are separate entries in the source; they are usually repeats but may differ in a detail not shown here. Identical values can stand only once.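 Cultured in 96-well plates, cells were exposed to test compound for 48 hours across five concentrations. GI50 = concentration required for 50% inhibition of growth. At the TGI there is no net growth.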

Experiments:
Assay in all cases: NCI-60 cell line screen, 48 h
786-0 renal = test system: 786-0 renal
A498 renal = test system: A498 renal
A549 NSCLC = test system: A549 NSCLC
ACHN renal = test system: ACHN renal
BT-549 breast = test system: BT-549 breast
CAKI-1 renal = test system: CAKI-1 renal
CCRF-CEM leukemia = test system: CCRF-CEM leukemia
COLO 205 colon = test system: COLO 205 colon
DU-145 prostate = test system: DU-145 prostate
EKVX NSCLC = test system: EKVX NSCLC
HCC-2998 colon = test system: HCC-2998 colon
HCT-116 colon = test system: HCT-116 colon
HCT-15 colon = test system: HCT-15 colon
HL-60(TB) leukemia = test system: HL-60(TB) leukemia
HOP-62 NSCLC = test system: HOP-62 NSCLC
HOP-92 NSCLC = test system: HOP-92 NSCLC
HS 578T breast = test system: HS 578T breast
HT29 colon = test system: HT29 colon
IGROV1 ovarian = test system: IGROV1 ovarian
K-562 leukemia = test system: K-562 leukemia
KM12 colon = test system: KM12 colon
LOX IMVI melanoma = test system: LOX IMVI melanoma
M14 melanoma = test system: M14 melanoma
MALME-3M melanoma = test system: MALME-3M melanoma
MCF7 breast = test system: MCF7 breast
MDA-MB-231 breast = test system: MDA-MB-231 breast
MDA-MB-435 = test system: MDA-MB-435
MOLT-4 leukemia = test system: MOLT-4 leukemia
NCI-H226 lung = test system: NCI-H226 lung

With `NC1(c2ccc(-c3nc4ccn5c(=O)[nH]nc5c4cc3-c3ccccc3)cc2)CCC1` the GI50 (786-0 renal) was 0.816 µM and 0.697 µM and 1.15 µM, the TGI (786-0 renal) was 11.9 µM and > 9.66 µM and 14.7 µM and the GI50 (A498 renal) was 0.0411 µM and 0.0426 µM and 0.112 µM. The TGI (A498 renal) was 0.432 µM and 0.319 µM and 0.865 µM, the GI50 (A549 NSCLC) was 4.33 µM and 6.07 µM and 7.9 µM and the TGI (A549 NSCLC) was 20.5 µM and > 10 µM and 23.6 µM. For the same compound, the GI50 (ACHN renal) was 3.05 µM and > 10 µM and 10.5 µM, the TGI (ACHN renal) was 14.9 µM and > 10 µM and 22.4 µM and the GI50 (BT-549 breast) was 0.462 µM and 0.621 µM and 1.57 µM. For the same compound, the TGI (BT-549 breast) was 13.6 µM and > 10 µM and 16 µM, the GI50 (CAKI-1 renal) was 5.01 µM and > 2.69 µM and 4.86 µM and the TGI (CAKI-1 renal) was 20 µM and > 10 µM and 20.7 µM. The GI50 (CCRF-CEM leukemia) was 0.362 µM and 0.488 µM and 0.402 µM, the TGI (CCRF-CEM leukemia) was 15.6 µM and > 10 µM and 13.7 µM and the GI50 (COLO 205 colon) was 0.461 µM and 0.651 µM and 1.81 µM. For the same compound, the TGI (COLO 205 colon) was 12.4 µM and > 10 µM and 18.4 µM, the GI50 (DU-145 prostate) was 13.6 µM and > 10 µM and 13.3 µM and the TGI (DU-145 prostate) was 26.7 µM and > 10 µM and 26.4 µM. For the same compound, the GI50 (EKVX NSCLC) was 3.65 µM and > 10 µM and 1.41 µM, the TGI (EKVX NSCLC) was 22.8 µM and > 10 µM and 18.5 µM and the GI50 (HCC-2998 colon) was 3.35 µM and > 6.01 µM and 3.61 µM. The TGI (HCC-2998 colon) was 18.6 µM and > 10 µM and 19.7 µM, the GI50 (HCT-116 colon) was 5.49 µM and > 6.86 µM and 11.3 µM and the TGI (HCT-116 colon) was 19.3 µM and > 10 µM and 27.8 µM. For the same compound, the GI50 (HCT-15 colon) was 2.92 µM and > 6.16 µM and 10.4 µM, the TGI (HCT-15 colon) was 17.5 µM and > 10 µM and 23.9 µM and the GI50 (HL-60(TB) leukemia) was 9.79 µM and > 7.36 µM and 12.3 µM. For the same compound, the TGI (HL-60(TB) leukemia) was 27.2 µM and > 10 µM and 28.8 µM, the GI50 (HOP-62 NSCLC) was 3.84 µM and > 10 µM and 10.7 µM and the TGI (HOP-62 NSCLC) was 15.9 µM and > 10 µM and 26.2 µM. For the same compound, the GI50 (HOP-92 NSCLC) was 0.035 µM and 0.113 µM and 0.163 µM, the TGI (HOP-92 NSCLC) was 3.5 µM and > 2.63 µM and 5.61 µM and the GI50 (HS 578T breast) was 0.171 µM and 0.184 µM and 0.28 µM. For the same compound, the TGI (HS 578T breast) was 7.4 µM and > 2.73 µM and 4.3 µM, the GI50 (HT29 colon) was 1.5 µM and 2.34 µM and 3.02 µM and the TGI (HT29 colon) was 9.7 µM and > 10 µM and 24.6 µM. The GI50 (IGROV1 ovarian) was 0.0878 µM and 0.198 µM and 0.407 µM, the TGI (IGROV1 ovarian) was 13.6 µM and > 10 µM and 9.33 µM and the GI50 (K-562 leukemia) was 5.43 µM and > 5.59 µM and 9.99 µM. The TGI (K-562 leukemia) was 18.2 µM and > 10 µM and 29.1 µM, the GI50 (KM12 colon) was 6.86 µM and > 8.08 µM and 12.2 µM and the TGI (KM12 colon) was 20.8 µM and > 10 µM and 25.8 µM. The GI50 (LOX IMVI melanoma) was 4.94 µM and > 6.27 µM and 11.8 µM, the TGI (LOX IMVI melanoma) was 16.5 µM and > 10 µM and 24.6 µM and the GI50 (M14 melanoma) was 4.69 µM and > 10 µM and 13.1 µM. The TGI (M14 melanoma) was 9.71 µM and > 10 µM and 28.7 µM, the TGI (MALME-3M melanoma) was 3 µM and > 10 µM and 24.3 µM and the TGI (MCF7 breast) was 6.37 µM and > 10 µM and 17.5 µM. The GI50 (MDA-MB-231 breast) was 10.7 µM and > 10 µM and 13.5 µM, the TGI (MDA-MB-231 breast) was 23.8 µM and > 10 µM and 26.7 µM and the GI50 (MDA-MB-435) was 5.47 µM and > 10 µM and 10.8 µM. The TGI (MDA-MB-435) was 21.8 µM and > 10 µM and 23 µM, the GI50 (MOLT-4 leukemia) was 0.353 µM and 0.531 µM and 0.313 µM and the TGI (MOLT-4 leukemia) was 14.1 µM and > 10 µM and 10.9 µM. The GI50 (NCI-H226 lung) was 12.2 µM and > 10 µM and 11.6 µM and the TGI (NCI-H226 lung) was 25.9 µM and > 10 µM and 26.4 µM.
